What is called IC50 is the midpoint of a concentration-inhibition curve.

Numbered stars: 1 amine (or outer) side, 2 acyl side, 3 side chain; on linkers, the order of the positions; unused ones are H or OH. Bridge positions count the residues as written; N and C are the ends. Square brackets hold non-standard residues; d marks the D form. Peptide text beside a SMILES is read from it. I, II: the chains in the order shown. * marks the point of attachment. Phe(4-tBu) = CC(C)(C)c1ccc(C[C@H](N)C(=O)O)cc1; 2Nal = N[C@@H](Cc1ccc2ccccc2c1)C(=O)O; Diglycolyl = O=C(COCC(=O)[*:2])[*:1]; Oleoyl = CCCCCCCC/C=C\CCCCCCCC(=O)*; NMeR = CN[C@@H](CCCNC(=N)N)C(=O)O; Palmitoyl = CCCCCCCCCCCCCCCC(=O)*; Myristoyl = CCCCCCCCCCCCCC(=O)*; β3hE = N[C@@H](CCC(=O)O)CC(=O)O; Pen = CC(C)(S)[C@H](N)C(=O)O; hLeu = CC(C)CC[C@H](N)C(=O)O; Lauroyl = CCCCCCCCCCCC(=O)*; Isovaleryl = CC(C)CC(=O)*; Hexanoyl = CCCCCC(=O)* Bounds are passed on as bounds.

Chain of α4β7 (P13612 34-1032): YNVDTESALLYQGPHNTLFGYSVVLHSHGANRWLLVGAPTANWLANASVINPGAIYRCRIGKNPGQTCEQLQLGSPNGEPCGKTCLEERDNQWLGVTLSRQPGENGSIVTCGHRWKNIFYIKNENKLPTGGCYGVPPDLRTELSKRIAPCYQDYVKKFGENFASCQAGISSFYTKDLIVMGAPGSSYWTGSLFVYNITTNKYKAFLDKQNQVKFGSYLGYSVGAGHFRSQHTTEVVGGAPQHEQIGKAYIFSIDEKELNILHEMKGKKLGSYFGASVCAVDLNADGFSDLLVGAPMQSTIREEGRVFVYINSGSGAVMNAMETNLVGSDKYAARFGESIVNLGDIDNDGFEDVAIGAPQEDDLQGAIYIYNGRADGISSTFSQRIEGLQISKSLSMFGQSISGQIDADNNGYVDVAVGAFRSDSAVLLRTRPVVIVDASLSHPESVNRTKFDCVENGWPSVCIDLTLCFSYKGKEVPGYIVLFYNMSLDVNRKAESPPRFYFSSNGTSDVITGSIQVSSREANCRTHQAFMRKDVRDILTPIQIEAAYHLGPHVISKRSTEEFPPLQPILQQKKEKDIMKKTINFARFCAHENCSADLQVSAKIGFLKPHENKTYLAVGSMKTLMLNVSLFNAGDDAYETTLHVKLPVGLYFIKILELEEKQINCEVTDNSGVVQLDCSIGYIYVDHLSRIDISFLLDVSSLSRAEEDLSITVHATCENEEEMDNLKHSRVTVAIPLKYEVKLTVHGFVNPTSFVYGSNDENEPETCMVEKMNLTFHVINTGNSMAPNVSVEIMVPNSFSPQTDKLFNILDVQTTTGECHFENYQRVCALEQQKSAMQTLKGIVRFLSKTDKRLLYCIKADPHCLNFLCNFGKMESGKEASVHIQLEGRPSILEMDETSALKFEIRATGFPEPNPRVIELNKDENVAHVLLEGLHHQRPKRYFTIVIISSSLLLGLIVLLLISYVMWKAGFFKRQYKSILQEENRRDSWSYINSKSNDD
Chain of α4β7 (P26010 20-798): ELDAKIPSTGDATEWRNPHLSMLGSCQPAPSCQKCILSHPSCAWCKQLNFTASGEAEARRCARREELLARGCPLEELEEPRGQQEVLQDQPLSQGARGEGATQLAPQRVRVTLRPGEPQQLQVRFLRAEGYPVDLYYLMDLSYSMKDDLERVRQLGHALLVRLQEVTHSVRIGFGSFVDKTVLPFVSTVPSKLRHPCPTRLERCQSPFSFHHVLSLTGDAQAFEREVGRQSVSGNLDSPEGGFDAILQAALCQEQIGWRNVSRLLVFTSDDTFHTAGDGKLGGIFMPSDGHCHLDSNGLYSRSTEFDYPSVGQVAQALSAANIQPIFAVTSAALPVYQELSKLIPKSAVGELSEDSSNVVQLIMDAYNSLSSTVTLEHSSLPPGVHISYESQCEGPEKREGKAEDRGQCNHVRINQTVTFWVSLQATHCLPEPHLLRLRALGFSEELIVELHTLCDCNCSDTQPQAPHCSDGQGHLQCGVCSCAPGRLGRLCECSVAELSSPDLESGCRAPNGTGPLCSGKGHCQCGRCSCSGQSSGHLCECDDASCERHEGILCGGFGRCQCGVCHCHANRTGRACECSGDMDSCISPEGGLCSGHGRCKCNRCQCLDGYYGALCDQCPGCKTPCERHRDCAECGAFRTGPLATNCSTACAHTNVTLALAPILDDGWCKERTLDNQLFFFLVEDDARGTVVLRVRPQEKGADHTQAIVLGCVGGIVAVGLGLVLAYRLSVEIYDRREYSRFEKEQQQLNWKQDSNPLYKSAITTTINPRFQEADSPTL

The assay addresses α4β7 (Homo sapiens, UniProt P13612+P26010). Briefly: α4β7-MAdCAM Cell Adhesion Assay (RPMI 8866 human cells). Conditions: Table 3-B, Potency (α4β7); range classes; read-out: α4β7 cell (Hu) IC50. Type of assay: cell-based. The arrangement: host or cells: RPMI 8866 human B lymphoblastoid cells. The procedure, abridged:
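Adhesion read-out: MTT absorbance at 570 nm minus no-cell wells, after three washes. Plates coated with rh MAdCAM-1/Fc received peptide dilutions plus 200,000 RPMI 8866 cells in Mn2+ (1 mM)-supplemented DMEM, 0.1% BSA, HEPES pH 7, incubated 30-45 min, 37 °C.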
Turning to `CC(=O)N[C@@H]1C(=O)N(C)[C@@H](CCCNC(=N)N)C(=O)N[C@@H](CO)C(=O)N[C@@H](CC(=O)O)C(=O)N[C@@H](CC(C)C)C(=O)N[C@@H](CC(C)C)C(=O)N[C@H](C(=O)N[C@@H](Cc2ccc3ccccc3c2)C(=O)N[C@H](CCC(=O)O)C(N)=O)C(C)(C)SSC1(C)C` [compound 159] (Ac-[Pen][NMeR]SDLL[Pen][2Nal][dE]-NH2; disulfide 1-7), the IC50 is 1000 to 10000 nM.

As for `CC[C@H](C)[C@@H]1NC(=O)[C@H](CC(=O)O)NC(=O)[C@H](CO)NC(=O)[C@H](CCCNC(=N)N)N(C)C(=O)[C@@H](NC(C)=O)C(C)(C)SSC(C)(C)[C@@H](C(=O)N[C@@H](Cc2ccc3ccccc3c2)C(=O)N[C@H](CCC(=O)O)C(N)=O)NC(=O)[C@H](CC(C)C)NC1=O` [compound 160] (Ac-[Pen][NMeR]SDIL[Pen][2Nal][dE]-NH2; disulfide 1-7), the IC50 is 1000 to 10000 nM.

On to `CC(=O)N[C@@H]1C(=O)N(C)[C@@H](CCCNC(=N)N)C(=O)N[C@@H](CO)C(=O)N[C@@H](CC(=O)O)C(=O)N[C@@H](CCC(C)C)C(=O)N[C@@H](CC(C)C)C(=O)N[C@H](C(=O)N[C@@H](Cc2ccc3ccccc3c2)C(=O)N[C@H](CCC(=O)O)C(N)=O)C(C)(C)SSC1(C)C` [compound 161] (Ac-[Pen][NMeR]SD[hLeu]L[Pen][2Nal][dE]-NH2; disulfide 1-7), for which the IC50 fell in the range of 1000 to 10000 nM.

For the molecule `CC(=O)N[C@@H]1C(=O)N(C)[C@@H](CCCNC(=N)N)C(=O)N[C@@H](CO)C(=O)N[C@@H](CC(=O)O)C(=O)N[C@@H]([C@@H](C)O)C(=O)N[C@@H](Cc2ccccc2)C(=O)N[C@H](C(=O)N[C@@H](Cc2ccc3ccccc3c2)C(=O)N[C@H](CCC(=O)O)C(N)=O)C(C)(C)SSC1(C)C` [compound 162] (Ac-[Pen][NMeR]SDTF[Pen][2Nal][dE]-NH2; disulfide 1-7), the IC50 is 1000 to 10000 nM. For the molecule `CC(=O)N[C@@H]1C(=O)N(C)[C@@H](CCCNC(=N)N)C(=O)N[C@@H](CO)C(=O)N[C@@H](CC(=O)O)C(=O)N[C@@H]([C@@H](C)O)C(=O)N[C@@H](CCC(N)=O)C(=O)N[C@H](C(=O)N[C@@H](Cc2ccc3ccccc3c2)C(=O)N[C@H](CCC(=O)O)C(N)=O)C(C)(C)SSC1(C)C` [compound 163] (Ac-[Pen][NMeR]SDTQ[Pen][2Nal][dE]-NH2; disulfide 1-7), the IC50 fell in the range of 1000 to 10000 nM. To `CC(=O)N[C@@H]1C(=O)N(C)[C@@H](CCCNC(=N)N)C(=O)N[C@@H](CO)C(=O)N[C@@H](CC(=O)O)C(=O)N[C@@H]([C@@H](C)O)C(=O)N[C@@H](Cc2ccc(O)cc2)C(=O)N[C@H](C(=O)N[C@@H](Cc2ccc3ccccc3c2)C(=O)N[C@H](CCC(=O)O)C(N)=O)C(C)(C)SSC1(C)C` [compound 164] (Ac-[Pen][NMeR]SDTY[Pen][2Nal][dE]-NH2; disulfide 1-7) belongs 1000 to 10000 nM. To `CCCCCC(=O)N[C@@H]1C(=O)N(C)[C@@H](CCCNC(=N)N)C(=O)N[C@@H](CO)C(=O)N[C@@H](CC(=O)O)C(=O)N[C@@H]([C@@H](C)O)C(=O)N[C@@H](CC(C)C)C(=O)N[C@H](C(=O)N[C@@H](Cc2ccc(C(C)(C)C)cc2)C(=O)N[C@@H](CCC(=O)O)CC(=O)N[C@H](CCCCN)C(N)=O)C(C)(C)SSC1(C)C` [compound 176] (Hexanoyl-[Pen][NMeR]SDTL[Pen][Phe(4-tBu)][β3hE][dK]-NH2; disulfide 1-7) belongs 50 to 100 nM.

Regarding `CC(C)CC(=O)N[C@@H]1C(=O)N(C)[C@@H](CCCNC(=N)N)C(=O)N[C@@H](CO)C(=O)N[C@@H](CC(=O)O)C(=O)N[C@@H]([C@@H](C)O)C(=O)N[C@@H](CC(C)C)C(=O)N[C@H](C(=O)N[C@@H](Cc2ccc(C(C)(C)C)cc2)C(=O)N[C@@H](CCC(=O)O)CC(=O)N[C@H](CCCCN)C(N)=O)C(C)(C)SSC1(C)C` [compound 177] (Isovaleryl-[Pen][NMeR]SDTL[Pen][Phe(4-tBu)][β3hE][dK]-NH2; disulfide 1-7), the IC50 fell in the range of 50 to 100 nM. To `CCCCCCCCCCCCCCCC(=O)N[C@@H]1C(=O)N(C)[C@@H](CCCNC(=N)N)C(=O)N[C@@H](CO)C(=O)N[C@@H](CC(=O)O)C(=O)N[C@@H]([C@@H](C)O)C(=O)N[C@@H](CC(C)C)C(=O)N[C@H](C(=O)N[C@@H](Cc2ccc(C(C)(C)C)cc2)C(=O)N[C@@H](CCC(=O)O)CC(=O)N[C@H](CCCCN)C(N)=O)C(C)(C)SSC1(C)C` [compound 178] (Palmitoyl-[Pen][NMeR]SDTL[Pen][Phe(4-tBu)][β3hE][dK]-NH2; disulfide 1-7) belongs 1000 to 10000 nM; to `CCCCCCCCCCCC(=O)N[C@@H]1C(=O)N(C)[C@@H](CCCNC(=N)N)C(=O)N[C@@H](CO)C(=O)N[C@@H](CC(=O)O)C(=O)N[C@@H]([C@@H](C)O)C(=O)N[C@@H](CC(C)C)C(=O)N[C@H](C(=O)N[C@@H](Cc2ccc(C(C)(C)C)cc2)C(=O)N[C@@H](CCC(=O)O)CC(=O)N[C@H](CCCCN)C(N)=O)C(C)(C)SSC1(C)C` [compound 179] (Lauroyl-[Pen][NMeR]SDTL[Pen][Phe(4-tBu)][β3hE][dK]-NH2; disulfide 1-7), 100 to 500 nM. To `CCCCCCCC/C=C\CCCCCCCC(=O)N[C@@H]1C(=O)N(C)[C@@H](CCCNC(=N)N)C(=O)N[C@@H](CO)C(=O)N[C@@H](CC(=O)O)C(=O)N[C@@H]([C@@H](C)O)C(=O)N[C@@H](CC(C)C)C(=O)N[C@H](C(=O)N[C@@H](Cc2ccc(C(C)(C)C)cc2)C(=O)N[C@@H](CCC(=O)O)CC(=O)N[C@H](CCCCN)C(N)=O)C(C)(C)SSC1(C)C` [compound 180] (Oleoyl-[Pen][NMeR]SDTL[Pen][Phe(4-tBu)][β3hE][dK]-NH2; disulfide 1-7) belongs 1000 to 10000 nM; to `CCCCCCCCCCCCCC(=O)N[C@@H]1C(=O)N(C)[C@@H](CCCNC(=N)N)C(=O)N[C@@H](CO)C(=O)N[C@@H](CC(=O)O)C(=O)N[C@@H]([C@@H](C)O)C(=O)N[C@@H](CC(C)C)C(=O)N[C@H](C(=O)N[C@@H](Cc2ccc(C(C)(C)C)cc2)C(=O)N[C@@H](CCC(=O)O)CC(=O)N[C@H](CCCCN)C(N)=O)C(C)(C)SSC1(C)C` [compound 181] (Myristoyl-[Pen][NMeR]SDTL[Pen][Phe(4-tBu)][β3hE][dK]-NH2; disulfide 1-7), 1000 to 10000 nM. Regarding `CC[C@H](C)[C@@H]1NC(=O)[C@H](CC(=O)O)NC(=O)[C@H](CO)NC(=O)[C@H](CCCNC(=N)N)N(C)C(=O)[C@@H](NC(C)=O)C(C)(C)SSC(C)(C)[C@@H](C(=O)N[C@@H](Cc2ccc(C(C)(C)C)cc2)C(=O)N[C@@H](CCC(=O)O)CC(=O)N[C@H](CCCCNC(=O)CN(CC(=O)NCCCC[C@@H](NC(=O)C[C@H](CCC(=O)O)NC(=O)[C@H](Cc2ccc(C(C)(C)C)cc2)NC(=O)[C@H]2NC(=O)[C@H](CC(C)C)NC(=O)[C@H]([C@@H](C)CC)NC(=O)[C@H](CC(=O)O)NC(=O)[C@H](CO)NC(=O)[C@H](CCCNC(=N)N)N(C)C(=O)[C@@H](NC(C)=O)C(C)(C)SSC2(C)C)C(N)=O)C(=O)CCN)C(N)=O)NC(=O)[C@H](CC(C)C)NC1=O` [compound 186], the IC50 was in the range of 100 to 500 nM. To `CC(=O)N[C@@H]1C(=O)N(C)[C@@H](CCCNC(=N)N)C(=O)N[C@@H](CO)C(=O)N[C@@H](CC(=O)O)C(=O)N[C@@H]([C@@H](C)O)C(=O)N[C@@H](CCC(N)=O)C(=O)N[C@H](C(=O)N[C@@H](Cc2ccc(C(C)(C)C)cc2)C(=O)N[C@@H](CCC(=O)O)CC(=O)N[C@H](CCCCNC(=O)CN(CC(=O)NCCCC[C@@H](NC(=O)C[C@H](CCC(=O)O)NC(=O)[C@H](Cc2ccc(C(C)(C)C)cc2)NC(=O)[C@H]2NC(=O)[C@H](CCC(N)=O)NC(=O)[C@H]([C@@H](C)O)NC(=O)[C@H](CC(=O)O)NC(=O)[C@H](CO)NC(=O)[C@H](CCCNC(=N)N)N(C)C(=O)[C@@H](NC(C)=O)C(C)(C)SSC2(C)C)C(N)=O)C(=O)CCN)C(N)=O)C(C)(C)SSC1(C)C` [compound 187] belongs 100 to 500 nM; to `CC[C@H](C)[C@@H]1NC(=O)[C@H](CCC(N)=O)NC(=O)[C@H](CO)NC(=O)[C@H](CCCNC(=N)N)N(C)C(=O)[C@@H](NC(C)=O)C(C)(C)SSC(C)(C)[C@@H](C(=O)N[C@@H](Cc2ccc(C(C)(C)C)cc2)C(=O)N[C@@H](CCC(=O)O)CC(=O)N[C@H](CCCCNC(=O)COCC(=O)NCCCC[C@@H](NC(=O)C[C@H](CCC(=O)O)NC(=O)[C@H](Cc2ccc(C(C)(C)C)cc2)NC(=O)[C@H]2NC(=O)[C@H](CCC(N)=O)NC(=O)[C@H]([C@@H](C)CC)NC(=O)[C@H](CCC(N)=O)NC(=O)[C@H](CO)NC(=O)[C@H](CCCNC(=N)N)N(C)C(=O)[C@@H](NC(C)=O)C(C)(C)SSC2(C)C)C(N)=O)C(N)=O)NC(=O)[C@H](CCC(N)=O)NC1=O` [compound 189] (I: Ac-[Pen][NMeR]SQIQ[Pen][Phe(4-tBu)][β3hE][dK]-NH2 / II: Ac-[Pen][NMeR]SQIQ[Pen][Phe(4-tBu)][β3hE][dK]-NH2; disulfide I:1-I:7, II:1-II:7; linker I:10-II:10 via Diglycolyl), 10000 to 100000 nM; to `CC[C@H](C)[C@@H]1NC(=O)[C@H](CCC(N)=O)NC(=O)[C@H](CO)NC(=O)[C@H](CCCNC(=N)N)N(C)C(=O)[C@@H](NC(C)=O)C(C)(C)SSC(C)(C)[C@@H](C(=O)N[C@@H](Cc2ccc(C(C)(C)C)cc2)C(=O)N[C@@H](CCC(=O)O)CC(=O)N[C@H](CCCCNC(=O)CN(CC(=O)NCCCC[C@@H](NC(=O)C[C@H](CCC(=O)O)NC(=O)[C@H](Cc2ccc(C(C)(C)C)cc2)NC(=O)[C@H]2NC(=O)[C@H](CCC(N)=O)NC(=O)[C@H]([C@@H](C)CC)NC(=O)[C@H](CCC(N)=O)NC(=O)[C@H](CO)NC(=O)[C@H](CCCNC(=N)N)N(C)C(=O)[C@@H](NC(C)=O)C(C)(C)SSC2(C)C)C(N)=O)C(=O)CCN)C(N)=O)NC(=O)[C@H](CCC(N)=O)NC1=O` [compound 190], above 100000 nM.

Source of the values: patent publication US9809623B2, “α4β7 peptide monomer and dimer antagonists” (Protagonist Therapeutics, Inc., priority 2014, dated 2017).
